Assay results: paper PMC7912796, “Design, Synthesis, Anticancer Activity, and Solid Lipid Nanoparticle Formulation of Indole- and Benzimidazole-Based Compounds as Pro-Apoptotic Agents Targeting Bcl-2 Protein” (Pharmaceuticals, 2021)

Assays:
[1] = test system: MDA-MB-231/breast cancer cells; assay: MTT-cell proliferation assay; type: cell-based, human; conditions: for IC50: 48 h drug exposure, mean of three experiments ± SEM
From the text: (§1) The potential anti-cancer activity of all fourteen final synthesized compounds was investigated through MTT cytotoxic assay against two different human solid cancerous cell lines; A549/lung and MDA-MB-231/breast adenocarcinoma. The adopted cell-proliferation assay assessed % cell viability in relation to the reducing activity of cellular NADPH-dependent cellular oxidoreductases on tetrazolium dye, MTT [2,5-diphenyl-3-(4,5-dimethylthiazol-2-yl)tetrazolium bromide salt], for furnishing an easily quantified insoluble chromogenic formazan. For each drug concentration, 0.1, 1, 10, and 100 μM, the % cell-viability was estimated relative to negative control following a complete 48 h of drug treatment. Both 5-fluorouracil (5-FU) and doxorubicin (DOX) were set as positive index comparators. Moreover, the safety profile of the synthesized compounds was further investigated by examining their in-vitro cytotoxicity on non-cancerous cell line; MDCK/kidney cells.
(§2) Evaluating the cytotoxicity of tested compounds on two cancer cell lines (A549/lung and MDA-MB-231/breast adenocarcinoma) and non-cancerous (MDCK/kidney cells) was performed while adopting the formerly described method with small alterations. Cancer cell lines were propagated within Dulbecco’s Modified Eagle Medium-High Glucose (Cat.#: P0103; DMEM_High Glucose with Na.Pyruvate and stable Glutamine, Biowest^TM, Nuaillé, France), while MDA-MB-231 cells were propagated within RPMI-1640 L-Glutamine medium (Cat.#:12-604F; Lonza-Verviers SPRL^TM, Verviers, Belgium). The culturing media were supplemented via 1% antibiotic-antimycotic 100X (Cat.#: L0010; Biowest^TM, Nuaillé, France) and 10% fetal bovine serum (FBS) (Cat.#: EU-000-H; Seralab^TM, West Sussex, UK). Cells were seeded as triplicates within 96-well plate, at 1 × 10^4 cells per well density, after being counted and viability checked using the trypan blue staining solution (Cat.# ab233465; Abcam^TM, Cambridge, MA, USA). Seeded cells were permitted to adhere for 24 h under 5% CO2 and at 37 °C incubating conditions. The assigned compounds were dissolved in 500 µL DMSO affording the stock solution (100 mM) being ready for more diluting within the whole medium to obtain the compound’s final concentrations; 0.1, 1, 10, 100 µM for cell treatments. […] Following 24 h compound-cell treatment, the medium was substituted by fresh one and cells were permitted to develop for 48 h. At four hours prior the end of incubation, 10 μL MTT Sigma-Aldrich^TM (5 mg/mL in PBS 1X without magnesium and calcium; Cat.# 17-516F, Lonza-Verviers^TM, Basel, Switzerland) were added to all wells. Following the complete 48 h incubation, 100 μL DMSO was all added to all wells where they were subsequently centrifuged at 4000 rpm for 5 min allowing the formazan crystals of formazan to precipitate. Color was established and intensities were recorded at 490 nm using Synergy-Neo2® Hybrid MultiMode Plate Reader (BioTek^TM, Winooski, VT, USA), while subtracting the multi-well plates background absorbance at 690 nm. Percentage cell viability was estimated using the subsequent formula: % cell-viability = (average absorbance of treated wells/average absorbance of controls) × 100.

[2] = test system: MDCK/kidney non-cancerous cells; assay: MTT-cell proliferation assay on non-cancerous cell line; type: cell-based; conditions: Canis lupus familiaris, MDCK, 48 h, 48 h drug exposure, mean ± SEM
From the text: as §1, §2

[3] = test system: A549/lung adenocarcinoma cells; assay: MTT-cell proliferation assay; type: cell-based, human; conditions: for IC50: Homo sapiens, A549, 48 h drug exposure, mean of three experiments ± SEM
From the text: as §1, §2

A549/lung adenocarcinoma = assay: Morphological assessment; type: cell-based, human; conditions: 0.1-100 µM (5-FU 100 µM), 48 h, phase-contrast microscope

melting point [°C] | IC50 ([1]; Homo sapiens, MDA-MB-231, 48 h) [µM] | SMILES | also measured
252 to 254 | 17.4 ± 3.23 | O=C(NN=Cc1cccnc1)c1cc2ccccc2[nH]1 [Compound 7d, N′-(pyridin-3-ylmethylene)-1H-indole-2-carbohydrazide] | –
104 to 106 | 43.8 ± 1.09 | COc1ccc(C=NNC(=O)c2cc3ccccc3[nH]2)cc1 [Compound 7b, N′-(4-methoxybenzylidene)-1H-indole-2-carbohydrazide] | IC50 [2]: 28.9 ± 1.49 µM
90 to 92 | – | CN(C)c1ccc(C=NNC(=O)c2cc3ccccc3[nH]2)cc1 [Compound 7c, N′-(4-(dimethylamino)benzylidene)-1H-indole-2-carbohydrazide] | –
229 to 231 | 21.6 | CC(C)Cc1ccc(-c2nn(-c3ccccc3)cc2C=NNC(=O)c2cc3ccccc3[nH]2)cc1 [Compound 8d, N′-((3-(4-isobutylphenyl)-1-phenyl-1H-pyrazol-4-yl)methylene)-1H-indole-2-carbohydrazide] | IC50 [1]: 31.5 ± 4.66 µM
111 to 113 | – | O=C(NN=Cc1ccccc1)c1cc2ccccc2[nH]1 [Compound 7a, N′-benzylidene-1H-indole-2-carbohydrazide] | –
254 to 256 | 12.7 ± 0.84 | CCc1ccc(-c2nn(-c3ccccc3)cc2C=NNC(=O)c2cc3ccccc3[nH]2)cc1 [Compound 8a, N′-((3-(4-ethylphenyl)-1-phenyl-1H-pyrazol-4-yl)methylene)-1H-indole-2-carbohydrazide] | IC50 [3]: 23.1 ± 1.45 µM; IC50 [2]: 73.9 ± 2.3 µM
219 to 221 | 12.8 ± 3.5 | CC(C)c1ccc(-c2nn(-c3ccccc3)cc2C=NNC(=O)c2cc3ccccc3[nH]2)cc1 [Compound 8c, N′-((3-(4-isopropylphenyl)-1-phenyl-1H-pyrazol-4-yl)methylene)-1H-indole-2-carbohydrazide] | IC50 [3]: 11.6 ± 2.57 µM; IC50 [2]: 87.3 ± 3 µM

More lines, now with the values behind:

SMILES | melting point [°C] | IC50 ([1]; Homo sapiens, MDA-MB-231, 48 h) [µM] | also measured
Brc1cccc(NCc2nc3ccccc3[nH]2)c1 [Compound 3c, N-((1H-benzo[d]imidazol-2-yl)methyl)-3-bromoaniline] | 139 to 141 | – | effect on cell proliferation ([1]; 100 µM drug concentration): enhanced cell proliferation
Cc1cccc(NCc2nc3ccccc3[nH]2)c1 [Compound 3a, N-((1H-benzo[d]imidazol-2-yl)methyl)-3-methylaniline] | 139 to 141 | 29.7 ± 4.03 | –
Cc1cccc(C)c1NCc1nc2ccccc2[nH]1 [Compound 3b, N-((1H-benzo[d]imidazol-2-yl)methyl)-2,6-dimethylaniline] | 159 to 161 | – | effect on cell proliferation ([3]; 0.1-100 µM): irregular effects with tendency to increase the cell proliferation
Oc1ccc(NCc2nc3ccccc3[nH]2)cc1 [Compound 3d, 4-(((1H-benzo[d]imidazol-2-yl)methyl)amino)phenol] | 139 to 141 | – | –
Cc1nn(-c2ccc([N+](=O)[O-])c([N+](=O)[O-])c2)c(Cl)c1C=NNC(=O)c1cc2ccccc2[nH]1 [Compound 8f, N′-((5-chloro-1-(3,4-dinitrophenyl)-3-methyl-1H-pyrazol-4-yl)methylene)-1H-indole-2-carbohydrazide] | 204 to 206 | 31.5 | IC50 [1]: 21.6 ± 0.28 µM
O=c1[nH]cc(F)c(=O)[nH]1 [Compound 5-FU, 5-fluorouracil, reference compound] | – | – | cell morphology alterations (A549/lung adenocarcinoma): epithelial-mesenchymal transition was observed
